For one data set, the system named is DIO mouse. The data set is described as follows: Anti-obesity effect test using DIO mouse. It counts as in vivo. The note with it: 336 h, DIO mice, vs vehicle group, read-out: Weight loss rate; for inhibition in vivo at 100 mg/kg: oral 100 mg/kg once daily for 2 weeks. The protocol: (Test Example 4): Anti-Obesity Effect Test Using DIO Mouse
Diet-induced obesity (DIO) mice (D-12492 diet, male, C57BL-DIO, 26 to 28-week old) were orally administered with a 0.5 W/V % methylcellulose suspension comprising each test compound (Compound administration group, 5 or 6 mice/group) or a 0.5 W/V % methylcellulose suspension (Compound non-administration group (Vehicle group), 6 mice/group) once daily for 2 weeks. Weight loss rate was calculated by the following equation. Weight loss rate (%) of each Compound administration group−(1−average weight at the last day of the test of each Compound administration group/average weight at the last day of the test of Vehicle group)×100

Data set [1] in a line: Rat pharmacokinetic (PK) test (plasma concentration after oral administration). The note with it: male, SD.
Experimental: Each test compound was suspended in a 0.5 W/V % methylcellulose 400 solution to prepare a suspension, and the resulting suspension was orally administered to a male SD rat of 7 to 8-week old (weight: 180 to 250 g). After 0.25, 0.5, 1, 2, 4, 8, and 24 hour(s) of the administration of each test compound, blood (EDTA-added blood) was collected from jugular vein under isoflurane inhalation anesthesia. […] To the resulting blood plasma was added acetonitrile, a mixed solvent of acetonitrile and water (1:1 (V/V)), or a mixed solvent of acetonitrile and 0.1 M hydrochloric acid (1:1 (V/V)), then the resulting mixture was mixed at 750 rpm for 3 minutes in a shaker, and subjected to centrifugal separation at 3700 rpm for 2 minutes in a centrifuge to remove proteins. The resulting sample was subjected to LC (liquid chromatography)/MS (mass spectrometry) measurement under the following measurement conditions.
Each compound concentration in blood plasma at each time of blood collection was calculated according to the internal standard method, and, area under the plasma concentration vs. time curve (AUCall (Area Under Curve)) was calculated according to the trapezoidal method.
The LC and MS systems used in the present test are as follows.
LC: LC20 or LC30 HPLC system manufactured by Shimadzu Corporation
Column: Phenomenex Kinetex C18 (50×2.1 mm, 2.6 μm)
Column temperature: 40° C.
Mobile phase A: aqueous solution with 0.1% formic acid, Mobile phase B: 50% acetonitrile/methanol solution with 0.1% formic acid
In data set [2] the target is T1, Human recombinant trypsin (Homo sapiens, UniProt P07477).
T1 construct: purchased Wako Pure Chemical Industries, Ltd. 206-17171
The data set can be described thus: Human trypsin inhibition test. The conditions noted are these: 20 minutes after reaction start, read-out: Inhibition rate (trypsin); for inhibition at 0.001 µM: compound concentration 1 nM; for inhibition at 0.01 µM: compound concentration 10 nM; for inhibition at 0.1 µM: compound concentration 100 nM. Format: biochemical. The protocol: (Test Example 2): Human Trypsin Inhibition Test
Human recombinant trypsin (manufactured by Wako Pure Chemical Industries, Ltd., code no.: 206-17171) was diluted with an assay buffer (0.1 M Tris-HCl (pH8.0), 0.15 M NaCl, 10 mM CaCl2, 0.05% Brij35) to prepare a 10 ng/mL enzyme solution. Then, Boc-Phe-Ser-Arg-MCA (manufactured by PEPTIDE INSTITUTE, INC., code no.: 3107-v) was diluted with the assay buffer to prepare a 40 μM substrate solution. Each test compound was dissolved into DMSO, then diluted with the assay buffer 100 times, and further appropriately diluted with an assay buffer comprising 1% DMSO to prepare each compound solution. 10 μL of the compound solution, 15 μL of the assay buffer, and 50 μL of the substrate solution were added to a 96 well black plate (manufactured by Thermo Fisher Scientific Inc., code no.: 9502867), mixed, and then 25 μL of the enzyme solution was added thereto, and mixed to start the reaction. Fluorescence intensities at excitation wavelength 355 nm and fluorescence wavelength of 460 nm were measured by using a fluorescence plate reader (Flex station 3) (Test compound addition group). Also, the same reaction as described above except for not adding each test compound was carried out (Test compound non-addition group). Additionally, the same reaction as described above except for not adding each test compound and the enzyme was carried out (Control group). Inhibition rate was calculated by the following equation using fluorescence intensity after 20 minutes of reaction start. Inhibition rate (%)=(1−(fluorescence intensity of Test compound addition group−fluorescence intensity of Control group)[…](fluorescence intensity of Test compound non-addition group−fluorescence intensity of Control group))×100

Data set [3] addresses T2, Human recombinant enteropeptidase (Homo sapiens, UniProt P98073).
T2 construct: purchased BIO Vision Inc. 7529-50
The data set is described as follows: Human enteropeptidase inhibition test. It counts as biochemical. The conditions noted are these: read-out: Inhibition rate (enteropeptidase); for inhibition at 0.001 µM: compound concentration 1 nM. The protocol: (Test Example 1): Human Enteropeptidase Inhibition Test
Human recombinant enteropeptidase (manufactured by BIO Vision Inc., catalog no.: 7529-50) was diluted with an assay buffer (50 mM tricine (pH8.0), 0.01 W/V % Tween 20, 10 mM CaCl2) to prepare an […] enzyme solution. Then, 5FAM-Abu-Gly-Asp-Asp-Lys-Ile-Val-Gly-Gly-Lys (CPQ2)-Lys-Lys-NH2 (manufactured by CHINESE PEPTIDE COMPANY, purity: 94.5) was diluted with the assay buffer to prepare a 1.5 μM substrate solution. Each test compound was dissolved into DMSO, then diluted with the assay buffer 100 times, and further appropriately diluted with an assay buffer comprising 1% DMSO to prepare each compound solution. 10 μL of the compound solution, 15 μL of the assay buffer, and 50 μL of the substrate solution were added to a 96 well black plate (manufactured by Thermo Fisher Scientific Inc., code no.: 9502867), mixed, then 25 μL of the enzyme solution was added thereto, and mixed to start the reaction. Fluorescence intensities at excitation wavelength 485 nm and fluorescence wavelength 535 nm were measured by using a fluorescence plate reader (Flex station 3) (Test compound addition group). Also, the same reaction as described above except for not adding each test compound was carried out (Test compound non-addition group). Additionally, the same reaction as described above except for not adding each test compound and the enzyme was carried out (Control group). Inhibition rate was calculated by the following equation using fluorescence intensity after 20 minutes of reaction start. Inhibition rate (%)=(1−(fluorescence intensity of Test compound addition group−fluorescence intensity of Control group)÷(fluorescence intensity of Test compound non-addition group−fluorescence intensity of Control group))×100

The mark [4] stands for this setting: 20 minutes after reaction start.
Setting [5] is: compound concentration 10 nM, 20 minutes after reaction start.
[6] abbreviates: compound concentration 100 nM, 20 minutes after reaction start.

Where a name gives a salt, the structure may show the parent alone. Read-outs that look alike come from different tables or passages of the source.

T2 sequence (P98073 whole entry): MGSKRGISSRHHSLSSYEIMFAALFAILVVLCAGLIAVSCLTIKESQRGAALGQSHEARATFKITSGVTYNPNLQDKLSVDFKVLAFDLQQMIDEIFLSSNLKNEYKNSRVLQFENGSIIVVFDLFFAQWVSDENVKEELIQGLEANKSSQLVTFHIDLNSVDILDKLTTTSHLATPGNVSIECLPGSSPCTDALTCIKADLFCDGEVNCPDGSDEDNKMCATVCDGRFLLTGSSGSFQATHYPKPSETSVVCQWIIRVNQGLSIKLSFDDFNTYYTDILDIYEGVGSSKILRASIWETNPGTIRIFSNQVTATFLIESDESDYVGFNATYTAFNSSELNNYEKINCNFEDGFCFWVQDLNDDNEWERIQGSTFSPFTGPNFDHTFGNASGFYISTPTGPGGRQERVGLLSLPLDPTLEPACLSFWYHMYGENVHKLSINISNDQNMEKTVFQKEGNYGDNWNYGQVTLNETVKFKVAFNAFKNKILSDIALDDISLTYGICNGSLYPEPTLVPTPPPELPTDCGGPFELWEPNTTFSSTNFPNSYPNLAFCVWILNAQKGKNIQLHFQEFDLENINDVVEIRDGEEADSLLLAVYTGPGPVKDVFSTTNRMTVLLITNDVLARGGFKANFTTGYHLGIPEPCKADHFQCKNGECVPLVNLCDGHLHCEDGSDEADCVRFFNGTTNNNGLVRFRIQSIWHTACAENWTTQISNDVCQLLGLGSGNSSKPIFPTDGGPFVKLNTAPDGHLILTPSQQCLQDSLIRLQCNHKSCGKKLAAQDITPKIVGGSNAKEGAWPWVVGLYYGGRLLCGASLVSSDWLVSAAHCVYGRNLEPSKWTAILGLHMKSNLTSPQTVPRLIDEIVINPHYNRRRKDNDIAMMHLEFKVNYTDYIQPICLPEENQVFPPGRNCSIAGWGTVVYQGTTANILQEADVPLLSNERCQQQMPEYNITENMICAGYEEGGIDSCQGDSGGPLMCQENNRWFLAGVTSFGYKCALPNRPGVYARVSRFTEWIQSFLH

Broadly, the AUC is the area under the concentration-time curve, a measure of exposure. A high value points to more exposure. With `N=C(N)Nc1ccc(C(=O)Oc2ccc(CNS(=O)(=O)N(CCOCCOCCN([C@@H](CC(=O)O)C(=O)O)S(=O)(=O)NCc3ccc(OC(=O)c4ccc(NC(=N)N)cc4)cc3)[C@@H](CC(=O)O)C(=O)O)cc2)cc1` [2-(c)], in the data set on DIO mouse (oral 30 mg/kg once daily for 2 weeks), the inhibition in vivo at 30 mg/kg is ≥ 4%. Besides, in data set [1] (10 mg/kg), the AUC was ≤ 100 ng·h/mL.

Turning to `Cl.N=C(N)Nc1ccc(C(=O)Oc2ccc(CNS(=O)(=O)N(CCOCCOCCOCCOCCOCCN([C@@H](CC(=O)O)C(=O)O)S(=O)(=O)NCc3ccc(OC(=O)c4ccc(NC(=N)N)cc4)cc3)[C@@H](CC(=O)O)C(=O)O)cc2)cc1` [5-(c), (2S,22S)-3,21-bis(N-(4-((4-guanidinobenzoyl)oxy)benzyl)sulfamoyl)-6,9,12,15,18-pentaoxa-3,21-diazatricosane-1,2,22,23-tetracarboxylic acid hydrochloride], the inhibition in vivo at 100 mg/kg with DIO mouse is ≥ 4%. Also, the AUC in data set [1] (10 mg/kg) is ≤ 100 ng·h/mL.

For the compound `Cl.N=C(N)Nc1ccc(C(=O)Oc2ccc(CNS(=O)(=O)N(CCOCCOCCOCCOCCOCCOCCN([C@@H](CC(=O)O)C(=O)O)S(=O)(=O)NCc3ccc(OC(=O)c4ccc(NC(=N)N)cc4)cc3)[C@@H](CC(=O)O)C(=O)O)cc2)cc1` [6-(c), (2S,25S)-3,24-bis(N-(4-((4-guanidinobenzoyl)oxy)benzyl)sulfamoyl)-6,9,12,15,18,21-hexaoxa-3,24-diazahexacosane-1,2,25,26-tetracarboxylic acid hydrochloride], in the data set on DIO mouse, the inhibition in vivo at 100 mg/kg was ≥ 4%. For the same compound, in data set [1] (10 mg/kg), the AUC was ≤ 100 ng·h/mL.

By inhibition is commonly meant the relative decrease from the control value, in per cent. `N=C(N)Nc1ccc(C(=O)Oc2ccc(CNS(=O)(=O)N(CCCCN([C@@H](CC(=O)O)C(=O)O)S(=O)(=O)NCc3ccc(OC(=O)c4ccc(NC(=N)N)cc4)cc3)[C@@H](CC(=O)O)C(=O)O)cc2)cc1` [8-(b), (2S,2′S)-2,2′-(butane-1,4-diylbis((N-(4-((4-guanidinobenzoyl)oxy)benzyl)sulfamoyl)azanediyl))disuccinic acid trifluoroacetate]: the inhibition at 0.001 µM in data set [2] and in data set [3] (setting [4]) was ≥ 50% in each case. Moreover, the inhibition at 0.01 µM in data set [2] and in data set [3] (setting [5]) was ≥ 50% throughout. For the same compound, the inhibition at 0.1 µM in data set [2] and in data set [3] (setting [6]) was ≥ 50% each time. Besides, the inhibition in vivo at 100 mg/kg in the data set on DIO mouse was ≥ 4%. For the same compound, the AUC in data set [1] (10 mg/kg) is ≤ 100 ng·h/mL.

Consider `N=C(N)Nc1ccc(C(=O)Oc2ccc(COC(=O)N(CCCCCCCCCCCCN(C(=O)OCc3ccc(OC(=O)c4ccc(NC(=N)N)cc4)cc3)C(CC(=O)O)C(=O)O)C(CC(=O)O)C(=O)O)cc2)cc1` (centres unmarked) [11-(b), 2,2′-(1,20-bis(4-((4-guanidinobenzoyl)oxy)phenyl 3,18-dioxo-2,19-dioxa-4,17-diazaicosane-4,17-diyl)disuccinic acid trifluoroacetate], for which the inhibition at 0.01 µM in data set [2] and in data set [3] (setting [5]) was ≥ 50% each time. In addition, the inhibition at 0.1 µM in data set [2] and in data set [3] (setting [6]) was ≥ 50% in each case. The AUC in data set [1] (9 mg/kg) was ≤ 100 ng·h/mL.

For `N=C(N)Nc1ccc(C(=O)Oc2ccc(COC(=O)N(CC(=O)O)[C@@H](CC(=O)O)C(=O)N[C@@H](CC(=O)O)C(=O)NCCOCCOCCOCCOCCNC(=O)[C@H](CC(=O)O)NC(=O)[C@H](CC(=O)O)N(CC(=O)O)C(=O)OCc3ccc(OC(=O)c4ccc(NC(=N)N)cc4)cc3)cc2)cc1` [15-(b), (4S,7S,26S,29)-4,7,26,29-tetrakis(carboxymethyl)-3,30-bis((4-((4-guanidinobenzoyl)oxy)benzyl)oxy)carbonyl)-5,8,25,28-tetraoxo-12,15,18,21-tetraoxa-3,6,9,24,27,30-hexaazadotriacontane-1,32-dioic acid trifluoroacetate], the inhibition at 0.01 µM in data set [2] and in data set [3] (setting [5]) was ≥ 50% throughout. Further, the inhibition at 0.1 µM in data set [2] and in data set [3] (setting [6]) was ≥ 50% in each case. In addition, the AUC in data set [1] (9 mg/kg) is ≤ 100 ng·h/mL. For the same compound, the inhibition at 0.001 µM in data set [3] (setting [4]) was ≥ 50%.

In the case of `N=C(N)Nc1ccc(C(=O)Oc2ccc(COC(=O)N(Cc3cccc(C(=O)O)c3)[C@@H](CC(=O)O)C(=O)NCCOCCOCCOCCOCCNC(=O)[C@H](CC(=O)O)N(Cc3cccc(C(=O)O)c3)C(=O)OCc3ccc(OC(=O)c4ccc(NC(=N)N)cc4)cc3)cc2)cc1` [16-(b), (3S,22S)-3,22-bis((3-carboxybenzyl) (((4-(14-guanidinobenzoyl)oxy)benzyl)oxy)carbonyl)amino)-4,21-dioxo-8,11,14,17-tetraoxa-5,20-diazatetracosane-1,24-dioic acid trifluoroacetate], in data set [2], the inhibition at 0.01 µM was ≥ 50% and the inhibition at 0.1 µM was ≥ 50%. Further, the area under the curve (AUC) in data set [1] (9 mg/kg) was ≤ 100 ng·h/mL. Besides, in data set [3], the inhibition at 0.01 µM is ≥ 50% and the inhibition at 0.1 µM is ≥ 50%.

With `N=C(N)Nc1ccc(C(=O)Oc2ccc(CNS(=O)(=O)N(Cc3cccc(C(=O)NCCOCCOCCOCCOCCNC(=O)c4cccc(CN([C@@H](CC(=O)O)C(=O)O)S(=O)(=O)NCc5ccc(OC(=O)c6ccc(NC(=N)N)cc6)cc5)c4)c3)[C@@H](CC(=O)O)C(=O)O)cc2)cc1` [18-(b), (2S,2′S)-2,2′-((((5,8,11,14-tetraoxa-2,17-diazaoctadecane-1,18-dioyl)bis(3,1-phenylene))bis(methylene))bis(N-(4-((4-guanidinobenzoyl)oxy)benzyl)sulfamoyl)azanediyl))disuccinic acid trifluoroacetate], in data set [2], the inhibition at 0.001 µM was ≥ 50%, the inhibition at 0.01 µM was ≥ 50% and the inhibition at 0.1 µM was ≥ 50%. The inhibition in vivo at 90 mg/kg in the data set with DIO mouse (oral 90 mg/kg once daily for 2 weeks) was ≥ 4%. Also, the AUC in data set [1] (9 mg/kg) was ≤ 100 ng·h/mL. In data set [3], the inhibition at 0.01 µM is ≥ 50% and the inhibition at 0.1 µM was ≥ 50%.

As to `N=C(N)Nc1ccc(C(=O)Oc2cccc(C(=O)N(CCOCCN(C(=O)c3cccc(OC(=O)c4ccc(NC(=N)N)cc4)c3)[C@@H](CC(=O)O)C(=O)O)[C@@H](CC(=O)O)C(=O)O)c2)cc1` [30-(a)], the inhibition at 0.001 µM in data set [2] and in data set [3] (setting [4]) was ≥ 50% each time. The inhibition at 0.01 µM in data set [2] and in data set [3] (setting [5]) was ≥ 50% in each case. In addition, the inhibition at 0.1 µM in data set [2] and in data set [3] (setting [6]) was ≥ 50% each time. Besides, the exposure (AUC) in data set [1] (10 mg/kg) is ≤ 100 ng·h/mL.

Source of the values: patent publication US11465965B2, “Double-headed protease inhibitor” (UBE INDUSTRIES, LTD., priority 2017, dated 2022).
